# Data from patent US9889120B2, “Combination drug therapies for cancer and methods of making and using them” (Vicus Therapeutics, LLC, priority 2016, dated 2018).
# Key:
# advanced HCC [1] = assay: Randomized investigator initiated trial: sorafenib alone (Group S) vs sorafenib after one week of propranolol and etodolac (Group SPE) (Example 2); type: in vivo, human
# Method: Data on the use of the combination in advanced hepatocellular carcinoma patients are lacking.
# Patients with advanced HCC were eligible for this randomized investigator initiated trial. Patients received propranolol (P) and etodolac (E) (or “PE”) daily for one week prior to starting sorafenib (S). PE was administered to maximize the therapeutic benefit and minimize side effects. The primary endpoint was survival.
# Twenty-four patients were randomized to either sorafenib alone (Group S) or sorafenib after one week of propranolol and etodolac (Group SPE). Population: median age, 54.6 years; 74% male; BMI, 23.0; C-reactive protein (CRP), 69.3; cirrhosis (8.8%), fibrosis (50%), hepatitis B positive (85%). The patient population is summarized:
# The study design is schematically illustrated in FIG. 6. Patients received PE daily for one week prior to starting S.
# Dosing for PE was as follows: • 8 AM 20 mg propranolol+300 mg etodolac • 3 PM 20 mg propranolol • 8 PM 300 mg etodolac
# advanced HCC [2] = assay: Phase II multi-center, randomized, double-blind, placebo-controlled study of VT-122 or placebo on a background of stable-dose sorafenib (Example 1); type: in vivo, human; conditions: advanced HCC patients
# Method: This was a multi-center, randomized, double-blind, double-dummy, placebo-controlled study.
# VT-122 (Vicus Therapeutics, Morristown N.J.): patients entered a three week dose escalation period, with propranolol maximum at 120 mg, and etodolac maximum at 600 mg. VT-122 was administered in split doses in the morning and evening.
# After the three week dose escalation period, patients were to continue therapy for four four-week cycles.
# Secondary endpoint=lean body mass, overall survival, muscle function, symptom assessment.
smiles,measurement,setting,value
"CNC(=O)c1cc(Oc2ccc(NC(=O)Nc3ccc(Cl)c(C(F)(F)F)c3)cc2)ccn1 [Sorafenib, 4-[4-[[4-chloro-3-(trifluoromethyl)phenyl]carbamoylamino]phenoxy]-N-methyl-pyridine-2-carboxamide]",percent of patients with loss in weight,advanced HCC [1]; FIG. 8,50%
same,"12 Month Survival, Percent","advanced HCC [1]; N=12 per group, table",25.0%
same,"Hand foot skin reaction (HFS) grade 2 or 3, percent of patients",advanced HCC [1]; advanced HCC patients,67%
same,Median survival,advanced HCC [1]; advanced HCC patients,10 months
same,Twelve month survival,"advanced HCC [1]; advanced HCC patients, 12 per group",25.0%
same,"12 Month Survival, Alive",advanced HCC [1]; number of patients alive of N=12,3
same,"Kaplan-Meier median survival (95% CI), days",advanced HCC [2],"267 (32, NR) days"
